In patent US6350585B1, “Reagent for assay of amylase isozyme activity” (priority 1998, dated 2002):

Key:
[1] = molecular target: T1, S-type amylase (Calibzyme S) (Homo sapiens, UniProt P0DUB6); assay: amylase isozyme activity assay with potassium thiocyanate as activator, S-type amylase sample; assay type: biochemical; details: for Relative sensitivity: G3CNP at 900 mM = 100; for Percent residual enzyme activity: composition A/B
T1 construct: purchased International Reagents Corporation Calibzyme S
T1 sequence (P0DUB6 16-511): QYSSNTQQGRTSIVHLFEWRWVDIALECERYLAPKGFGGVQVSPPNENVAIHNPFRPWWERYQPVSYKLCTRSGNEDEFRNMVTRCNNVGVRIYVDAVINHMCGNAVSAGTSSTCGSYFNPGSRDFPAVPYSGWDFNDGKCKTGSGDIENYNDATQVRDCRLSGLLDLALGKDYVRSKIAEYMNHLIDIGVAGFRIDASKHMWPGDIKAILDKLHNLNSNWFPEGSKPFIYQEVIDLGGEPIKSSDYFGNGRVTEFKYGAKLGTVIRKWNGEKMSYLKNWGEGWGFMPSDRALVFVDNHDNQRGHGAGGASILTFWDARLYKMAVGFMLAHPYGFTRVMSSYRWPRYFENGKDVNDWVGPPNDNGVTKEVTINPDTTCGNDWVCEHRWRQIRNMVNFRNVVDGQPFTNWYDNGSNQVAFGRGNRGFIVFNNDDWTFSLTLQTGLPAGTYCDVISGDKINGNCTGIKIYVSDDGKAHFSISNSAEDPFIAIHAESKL
Protocol: A reagent for amylase isozyme activity assay comprising each composition as mentioned below was prepared. In the Table showing the composition, GalG2CNP (Example) is 2-chloro-4-nitrophenyl 4-O-β-D-galactopyranosylmaltoside, and G3CNP (Comparative Example) is 2-chloro-4-nitrophenylmaltotrioside.
S-type amylase-inhibiting antibody 88E8 (manufactured by Roche Diagnostics K.K.) 20 mg/L
S-type amylase-inhibiting antibody 66C7 (manufactured by Roche Diagnostics K.K.) 5 mg/L
(§1) Substrate (GalG2CNP (Example) or G3CNP (Comparative Example)) 2.6 mM
(3) S-type Amylase (Calibzyme S, Manufactured by International Reagents Corporation)
Each sample (0.05 mL was added to the reagent A (3 mL) and the reagent B (3 mL), respectively, and the mixtures were allowed to stand at 37° C. for 3 minutes. Then, the change in absorbance at 405 nm was assayed, and the change in absorbance per minute was calculated. The results are shown in Tables 1 and 2.
In the Tables, P is the case where P-type amylase was used as the sample, and S is the case where S-type amylase was used.
Percent residual enzyme activity (%)=(change in absorbance of composition A)/(change in absorbance of composition B)×100
Relative sensitivity (%)=(change in absorbance of composition B)/(change in absorbance of Comparative Example wherein potassium thiocyanate was 900 mM)×100

P-type amylase = molecular target: T2, P-type amylase (Homo sapiens, UniProt P04746); assay: P-type amylase activity assay of serum with reagent E; assay type: biochemical; details: composition E; for P-type amylase activity value: potassium thiocyanate 140 mM
T2 construct: Serum (1, 2 or 3); from tissue; host or cells: serum
T2 sequence (P04746 16-511): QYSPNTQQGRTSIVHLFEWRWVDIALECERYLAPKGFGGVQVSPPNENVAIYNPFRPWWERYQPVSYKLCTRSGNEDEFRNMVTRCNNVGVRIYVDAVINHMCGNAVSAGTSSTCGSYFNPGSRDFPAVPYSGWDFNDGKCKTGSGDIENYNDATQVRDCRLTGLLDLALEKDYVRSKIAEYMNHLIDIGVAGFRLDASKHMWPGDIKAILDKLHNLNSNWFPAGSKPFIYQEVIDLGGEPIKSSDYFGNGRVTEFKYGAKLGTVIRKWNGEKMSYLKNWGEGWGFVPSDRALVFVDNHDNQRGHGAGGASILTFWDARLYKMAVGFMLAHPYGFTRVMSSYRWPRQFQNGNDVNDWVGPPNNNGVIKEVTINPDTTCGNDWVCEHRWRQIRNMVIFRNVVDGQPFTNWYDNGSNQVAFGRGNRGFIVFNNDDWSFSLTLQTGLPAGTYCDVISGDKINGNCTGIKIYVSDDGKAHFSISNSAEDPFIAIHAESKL
Protocol: Good buffer (pH 6.2) 50 mM
S-type amylase inhibitory antibody 88E8 (manufactured by Roche Diagnostics K.K.) 15 mg/L
S-type amylase inhibitory antibody 66C7 (manufactured by Roche Diagnostics K.K.) 1.25 mg/L
Potassium thiocyanate 140 mM
as §1
(1) Distilled water (blank)
Each of the above-mentioned reagents (0.05 mL) was added to the above reagent E (3 mL) and the mixtures were left standing at 37° C. for 3 minutes. Then, change in absorbance at 405 nm was assayed and change in absorbance per minute was calculated. The obtained change in absorbance was converted to P-type amylase activity value at this composition using the molecular extinction coefficient of CNP.

O=[N+]([O-])c1ccc(O[C@H]2O[C@H](CO)[C@@H](O[C@H]3O[C@H](CO)[C@@H](O[C@H]4O[C@H](CO)[C@@H](O)[C@H](O)[C@H]4O)[C@H](O)[C@H]3O)[C@H](O)[C@H]2O)c(Cl)c1 [Example G3CNP, 2-chloro-4-nitrophenylmaltotrioside, reference compound]
Change in absorbance, Containing Antibody (Composition A) ([1]; potassium thiocyanate 0 mM): 0.5 mABS/min
Change in absorbance, Without antibody (Composition B) ([1]; potassium thiocyanate 0 mM): 4.9 mABS/min
Relative sensitivity ([1]; potassium thiocyanate 0 mM): 11.0%
Percent residual enzyme activity ([1]; potassium thiocyanate 0 mM): 10.2%
Change in absorbance, Containing Antibody (Composition A) ([1]; potassium thiocyanate 50 mM): 0.7 mABS/min
Change in absorbance, Without antibody (Composition B) ([1]; potassium thiocyanate 50 mM): 14.8 mABS/min
Relative sensitivity ([1]; potassium thiocyanate 50 mM): 33.1%
Percent residual enzyme activity ([1]; potassium thiocyanate 50 mM): 4.7%
Change in absorbance, Containing Antibody (Composition A) ([1]; potassium thiocyanate 100 mM): 0.9 mABS/min
Change in absorbance, Without antibody (Composition B) ([1]; potassium thiocyanate 100 mM): 21.9 mABS/min
Relative sensitivity ([1]; potassium thiocyanate 100 mM): 49.0%
Percent residual enzyme activity ([1]; potassium thiocyanate 100 mM): 4.1%
Change in absorbance, Containing Antibody (Composition A) ([1]; potassium thiocyanate 140 mM): 1.3 mABS/min
Change in absorbance, Without antibody (Composition B) ([1]; potassium thiocyanate 140 mM): 26.6 mABS/min
Relative sensitivity ([1]; potassium thiocyanate 140 mM): 59.5%
Percent residual enzyme activity ([1]; potassium thiocyanate 140 mM): 4.9%
Change in absorbance, Containing Antibody (Composition A) ([1]; potassium thiocyanate 200 mM): 1.5 mABS/min
Change in absorbance, Without antibody (Composition B) ([1]; potassium thiocyanate 200 mM): 31.4 mABS/min
Relative sensitivity ([1]; potassium thiocyanate 200 mM): 70.2%
Percent residual enzyme activity ([1]; potassium thiocyanate 200 mM): 4.8%
Change in absorbance, Containing Antibody (Composition A) ([1]; potassium thiocyanate 300 mM): 2.2 mABS/min
Change in absorbance, Without antibody (Composition B) ([1]; potassium thiocyanate 300 mM): 39.7 mABS/min
Relative sensitivity ([1]; potassium thiocyanate 300 mM): 88.8%
Percent residual enzyme activity ([1]; potassium thiocyanate 300 mM): 5.5%
Change in absorbance, Containing Antibody (Composition A) ([1]; potassium thiocyanate 400 mM): 3.3 mABS/min
Change in absorbance, Without antibody (Composition B) ([1]; potassium thiocyanate 400 mM): 43.2 mABS/min
Relative sensitivity ([1]; potassium thiocyanate 400 mM): 96.6%
Percent residual enzyme activity ([1]; potassium thiocyanate 400 mM): 7.6%
Change in absorbance, Containing Antibody (Composition A) ([1]; potassium thiocyanate 500 mM): 4.6 mABS/min
Change in absorbance, Without antibody (Composition B) ([1]; potassium thiocyanate 500 mM): 45.8 mABS/min
Relative sensitivity ([1]; potassium thiocyanate 500 mM): 102.5%
Percent residual enzyme activity ([1]; potassium thiocyanate 500 mM): 10.0%
Change in absorbance, Containing Antibody (Composition A) ([1]; potassium thiocyanate 600 mM): 5.4 mABS/min
Change in absorbance, Without antibody (Composition B) ([1]; potassium thiocyanate 600 mM): 47.3 mABS/min
Relative sensitivity ([1]; potassium thiocyanate 600 mM): 105.8%
Percent residual enzyme activity ([1]; potassium thiocyanate 600 mM): 11.4%
Change in absorbance, Containing Antibody (Composition A) ([1]; potassium thiocyanate 700 mM): 7.0 mABS/min
Change in absorbance, Without antibody (Composition B) ([1]; potassium thiocyanate 700 mM): 47.1 mABS/min
Relative sensitivity ([1]; potassium thiocyanate 700 mM): 105.4%
Percent residual enzyme activity ([1]; potassium thiocyanate 700 mM): 14.9%
Change in absorbance, Containing Antibody (Composition A) ([1]; potassium thiocyanate 800 mM): 8.4 mABS/min
Change in absorbance, Without antibody (Composition B) ([1]; potassium thiocyanate 800 mM): 45.8 mABS/min
Relative sensitivity ([1]; potassium thiocyanate 800 mM): 102.5%
Percent residual enzyme activity ([1]; potassium thiocyanate 800 mM): 18.3%
Change in absorbance, Containing Antibody (Composition A) ([1]; potassium thiocyanate 900 mM): 10.0 mABS/min
Change in absorbance, Without antibody (Composition B) ([1]; potassium thiocyanate 900 mM): 44.7 mABS/min
Relative sensitivity ([1]; potassium thiocyanate 900 mM): 100.0%
Percent residual enzyme activity ([1]; potassium thiocyanate 900 mM): 22.4%
P-type amylase activity value (P-type amylase; Serum 1): 16.8 IU/L
P-type amylase activity value (P-type amylase; Serum 2): 106.3 IU/L
P-type amylase activity value (P-type amylase; Serum 3): 80.9 IU/L
Blank, change in absorbance per minute (P-type amylase; distilled water as sample): 0.0006 ABS/min
